In patent US20220009915A1, “CHEMICAL PROBES AND METHODS OF USE THEREOF” (City University of Hong Kong, priority 2020, published 2022):

Columns and labels:
Format in all cases: biochemical
[1] = biological target: T1, HDAC8 (Homo sapiens, UniProt Q9BY41); test: HPLC analysis of the enzymatic reaction of KTlip with HDAC8; details: KTlip 40 μM, HDAC8 80 ng/μl, 20 mM HEPES pH 8.0, 2 hours reaction
T1 sequence (Q9BY41 1-377): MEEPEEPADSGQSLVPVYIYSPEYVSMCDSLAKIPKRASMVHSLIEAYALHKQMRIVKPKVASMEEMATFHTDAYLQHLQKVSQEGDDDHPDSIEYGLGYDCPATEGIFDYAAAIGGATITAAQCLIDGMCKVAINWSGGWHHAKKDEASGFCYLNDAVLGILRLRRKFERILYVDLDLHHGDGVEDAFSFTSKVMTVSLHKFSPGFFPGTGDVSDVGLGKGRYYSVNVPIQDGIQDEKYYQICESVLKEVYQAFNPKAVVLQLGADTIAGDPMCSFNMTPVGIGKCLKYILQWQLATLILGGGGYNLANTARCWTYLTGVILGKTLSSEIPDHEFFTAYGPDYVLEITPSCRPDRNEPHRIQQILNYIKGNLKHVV
Protocol: FIG. 6 depicts HPLC analysis of the enzymatic reaction of KTlip (40 μM) with HDAC8 (80 ng/μl) in the reaction buffer (20 mM HEPES buffer at pH 8.0, 150 mM NaCl, 1 mM MgCl2 and 2.7 mM KCl).
(§1) The probe KTlip following was first synthesized. The capacity of HDACs to recognize and remove the lipoyl group of KTlip was then examined by a fluorimeter assay. Briefly, KTlip was incubated with various HDACs at 37° C. in HEPES buffer (pH 8.0). The fluorescence of the enzymatic reactions was then measured accordingly. […] Further HPLC and MS analysis confirmed that the molecular weight of the newly generated peak corresponded to the expected tandem delipoylated/exchanged product (FIG. 4A,B). […] After enzymatic reaction with Sirt2, a shift of peak absorption from 380 nm to 480 nm was clearly observed. (FIG. 4C). Through detailed kinetic study, the first-order rate constant of the reaction was determined to be 0.013 min−1. The Km value of KTlip obtained from the fluorescent method matched well with that from the traditional HPLC method (FIG. 5), underscoring that probe KTlip can serve as a useful tool for detecting enzymatic delipoylation activity.

[2] = biological target: T2, Sirt2 (Homo sapiens, UniProt Q8IXJ6); test: Fluorimeter delipoylation assay of probe KTlip with Sirt2
T2 construct: made in house
T2 sequence (Q8IXJ6 1-389): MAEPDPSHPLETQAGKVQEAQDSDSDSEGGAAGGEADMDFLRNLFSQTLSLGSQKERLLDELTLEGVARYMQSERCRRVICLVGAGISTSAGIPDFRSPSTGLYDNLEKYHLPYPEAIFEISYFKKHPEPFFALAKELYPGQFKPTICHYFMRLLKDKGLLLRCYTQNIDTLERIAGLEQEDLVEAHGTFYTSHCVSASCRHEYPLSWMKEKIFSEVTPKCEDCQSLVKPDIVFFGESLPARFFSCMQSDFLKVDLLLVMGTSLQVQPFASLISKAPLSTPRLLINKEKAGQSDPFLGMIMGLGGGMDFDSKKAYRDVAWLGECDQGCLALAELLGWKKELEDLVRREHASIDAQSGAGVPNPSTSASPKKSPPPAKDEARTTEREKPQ
Protocol: as §1, with “The Km value of KTlip obtained from the fluorescent method matched well with that from the traditional HPLC method (FIG. 5), underscoring that probe KTlip can serve as a useful tool for detecting enzymatic delipoylation activity.” left out
(§2) The probe KTlip was incubated with sirtuin and NAD+ at 37° C. in 20 mM HEPES buffer (pH 8.0) containing 150 mM NaCl, 1 mM MgCl2, and 2.7 mM KCl. […] When the enzymatic reaction was complete, the reaction was applied for absorption and fluorescence measurement. The parameter set for absorbance measurement was as follows: UV-visible light, collection region: 300-550 nm. The parameter set for fluorescence measurements was as follows: λex=480 nm, slit width: 5 nm, collection region: 510-600 nm.

[3] = biological target: T3, Sirt5 (Homo sapiens, UniProt Q9NXA8); test: Fluorimeter delipoylation assay of probe KTlip with Sirt5; details: KTlip incubated with Sirt5 at 37° C. in HEPES buffer (pH 8.0)
T3 construct: made in house
T3 sequence (Q9NXA8 37-310): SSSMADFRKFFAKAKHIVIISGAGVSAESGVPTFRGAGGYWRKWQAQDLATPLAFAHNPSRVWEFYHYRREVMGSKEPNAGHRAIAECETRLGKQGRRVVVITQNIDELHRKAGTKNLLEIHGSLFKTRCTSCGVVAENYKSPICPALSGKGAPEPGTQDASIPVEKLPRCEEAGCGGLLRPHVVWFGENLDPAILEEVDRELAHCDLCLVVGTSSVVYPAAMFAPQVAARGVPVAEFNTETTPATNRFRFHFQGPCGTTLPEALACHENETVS
Protocol: as §1, with “The Km value of KTlip obtained from the fluorescent method matched well with that from the traditional HPLC method (FIG. 5), underscoring that probe KTlip can serve as a useful tool for detecting enzymatic delipoylation activity.” left out
as §2

[4] = biological target: T1, HDAC8; test: Fluorimeter delipoylation assay of probe KTlip with HDAC8; details: KTlip incubated with HDAC8 at 37° C. in HEPES buffer (pH 8.0)
Protocol: as §1, with “The Km value of KTlip obtained from the fluorescent method matched well with that from the traditional HPLC method (FIG. 5), underscoring that probe KTlip can serve as a useful tool for detecting enzymatic delipoylation activity.” left out
as §2

[5] = biological target: T4, Sirt6 (Homo sapiens, UniProt Q8N6T7); test: Fluorimeter delipoylation assay of probe KTlip with Sirt6; details: KTlip incubated with Sirt6 at 37° C. in HEPES buffer (pH 8.0)
T4 construct: made in house
Protocol: as §1, with “The Km value of KTlip obtained from the fluorescent method matched well with that from the traditional HPLC method (FIG. 5), underscoring that probe KTlip can serve as a useful tool for detecting enzymatic delipoylation activity.” left out
as §2

[6] = biological target: T5, Sirt3 (Homo sapiens, UniProt Q9NTG7); test: Fluorimeter delipoylation assay of probe KTlip with Sirt3; details: KTlip incubated with Sirt3 at 37° C. in HEPES buffer (pH 8.0)
T5 construct: made in house
T5 sequence (Q9NTG7 1-399): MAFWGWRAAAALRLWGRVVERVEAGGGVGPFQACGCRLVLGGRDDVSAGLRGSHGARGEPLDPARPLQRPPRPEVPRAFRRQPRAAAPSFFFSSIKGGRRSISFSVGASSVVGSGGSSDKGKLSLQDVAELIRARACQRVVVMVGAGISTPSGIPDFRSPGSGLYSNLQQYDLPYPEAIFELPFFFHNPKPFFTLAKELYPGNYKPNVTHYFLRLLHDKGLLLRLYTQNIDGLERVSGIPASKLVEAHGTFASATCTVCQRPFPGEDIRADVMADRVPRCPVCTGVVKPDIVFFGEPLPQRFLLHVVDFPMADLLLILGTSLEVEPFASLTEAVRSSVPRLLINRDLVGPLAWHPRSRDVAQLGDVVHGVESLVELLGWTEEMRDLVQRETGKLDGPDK
Protocol: as §1, with “The Km value of KTlip obtained from the fluorescent method matched well with that from the traditional HPLC method (FIG. 5), underscoring that probe KTlip can serve as a useful tool for detecting enzymatic delipoylation activity.” left out
as §2

[7] = biological target: T6, Sirt1 (Homo sapiens, UniProt Q96EB6); test: Fluorimeter delipoylation assay of probe KTlip with Sirt1; details: KTlip incubated with Sirt1 at 37° C. in HEPES buffer (pH 8.0); compared with Sirt2
T6 construct: made in house
T6 sequence (Q96EB6 1-747): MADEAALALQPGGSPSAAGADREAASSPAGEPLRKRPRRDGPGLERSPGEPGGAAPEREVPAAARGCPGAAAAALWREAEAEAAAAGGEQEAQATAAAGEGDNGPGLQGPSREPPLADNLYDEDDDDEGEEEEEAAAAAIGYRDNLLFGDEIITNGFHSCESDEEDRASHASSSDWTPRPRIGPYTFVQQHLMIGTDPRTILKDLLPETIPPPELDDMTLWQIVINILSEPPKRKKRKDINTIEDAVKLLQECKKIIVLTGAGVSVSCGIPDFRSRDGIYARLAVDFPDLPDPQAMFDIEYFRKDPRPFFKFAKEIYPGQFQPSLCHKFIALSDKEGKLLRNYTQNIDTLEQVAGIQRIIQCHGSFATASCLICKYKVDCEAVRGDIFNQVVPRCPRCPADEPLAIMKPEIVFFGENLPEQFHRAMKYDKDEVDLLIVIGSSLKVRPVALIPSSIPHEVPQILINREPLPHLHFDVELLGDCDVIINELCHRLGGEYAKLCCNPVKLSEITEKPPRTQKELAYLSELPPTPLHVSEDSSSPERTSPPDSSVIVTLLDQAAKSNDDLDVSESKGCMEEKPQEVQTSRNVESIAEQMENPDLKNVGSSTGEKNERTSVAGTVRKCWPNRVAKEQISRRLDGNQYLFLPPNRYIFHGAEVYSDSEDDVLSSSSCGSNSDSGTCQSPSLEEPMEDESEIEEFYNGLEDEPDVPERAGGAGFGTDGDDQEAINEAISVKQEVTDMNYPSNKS
Protocol: as §1, with “The Km value of KTlip obtained from the fluorescent method matched well with that from the traditional HPLC method (FIG. 5), underscoring that probe KTlip can serve as a useful tool for detecting enzymatic delipoylation activity.” left out
as §2

T4 sequence (Q8N6T7 whole entry, species assumed): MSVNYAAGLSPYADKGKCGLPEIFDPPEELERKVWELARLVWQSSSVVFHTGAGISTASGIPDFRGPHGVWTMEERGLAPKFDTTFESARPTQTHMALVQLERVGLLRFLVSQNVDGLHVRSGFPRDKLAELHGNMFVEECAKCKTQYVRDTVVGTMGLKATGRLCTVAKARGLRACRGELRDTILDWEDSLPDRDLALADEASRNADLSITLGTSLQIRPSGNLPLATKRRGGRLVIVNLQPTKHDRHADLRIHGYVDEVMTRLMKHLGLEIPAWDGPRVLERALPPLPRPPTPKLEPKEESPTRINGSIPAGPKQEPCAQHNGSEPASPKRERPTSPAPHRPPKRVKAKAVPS

delipoylated product (HPLC) [1]: no delipoylated product observed
fluorescence increase ([2]; KTlip incubated with Sirt2 at 37° C. in HEPES buffer (pH 8.0), NAD+, λex 480 nm): 60 fold
first-order rate constant of the reaction ([2]; delipoylation of KTlip by Sirt2, fit of fluorescence data to 1−exp(−kt)): 0.013 min⁻¹
fluorescence signal [7]: much lower fluorescence signal
Compound: CC(C)(C)OC(=O)N[C@@H](CCCCNC(=O)CCCCC1CCSS1)C(=O)NCCOCCOc1ccc([N+](=O)[O-])c2nonc12 (some centres unmarked) [KTlip]
fluorescence increase [3]: did not show a noticeable fluorescence increase
fluorescence increase [4]: did not show a noticeable fluorescence increase
fluorescence increase [5]: did not show a noticeable fluorescence increase
fluorescence increase [6]: did not show a noticeable fluorescence increase
